# “And” between values parts separate entries of the source, which are not always exact repeats. Equal values may be shown once. “Also recorded” adds a separate entry of the source.
# Assays:
# [1] = Pharmacokinetic studies after a single s.c. or i.v. bolus dose, plasma HPLC; type: in vivo, male Balb/c mice; design: AUC0- / Cmax: unit not given here
# From the text: Prostate cancer is second only to lung cancer as the leading cause of death and is the most prevalent cancer amongst men in the USA and Europe and accounts for about a third of all cancers diagnosed each year in men. In the UK, the incidence of prostate cancer has almost doubled over the last 30 years. Similarly, in 1998, it was estimated that more than 334 500 cases were diagnosed and more than 41 800 men died of the disease in the USA (Dijkman and Debruyne, 1996). The prostate gland is under the influence of androgens and often becomes enlarged in older men. […] Localized prostate cancer is curable and although the metastatic form of the disease is difficult to manage, endocrine therapy does reduce the death rate from the disease and is first-line treatment for all patients. In the testis and adrenals, 17-hydroxylase/C17,20 -lyase converts the C21 steroid precursors to the corresponding C19 andro- gens. […] Both T and DHT stimu- late prostatic growth, although DHT plays a much more important role than T in the organogenesis and homeostasis of the prostate (Wilson, 1996). Current endocrine therapies such as orchidectomy and luteinizing hormone releasing hormone (LHRH) agonists result in reduced androgen production by the testis and are useful in the early stages of prostate cancer. However, these treatment options fail to alter androgen production by the adrenals that may contribute androgen precursors to the prostate. The addition of flutamide, an anti-androgen to inhibit the action of androgens on the prostate, is only partially effective as the disease frequently progresses due to mutations in the androgen receptor, which can utilize flutamide as an agonist. […] This may be achieved through dual inhibition of 17- hydroxylase/C17,20 -lyase and 5-reductase (Li et al, 1992; Klus et al, 1996). […] Androgen- dependent human prostate cancer xenografts (PC-82) were grown in nude mice and the effects of L-39 (50 mg kg-1 day-1 ) on tumour growth and prostate-specific antigen (PSA) levels were determined after 28 days. […] Pharmacokinetic studies were also conducted in male Balb/c mice. […] (c) 2000 Cancer Research Campaign Keywords: 17-hydroxylase/C17,20 -lyase; 5-reductase; androgens; prostate cancer; pharmacokinetics 74 Received 9 November 1999 Revised 4 February 2000 Accepted 10 February 2000 Correspondence to: AM Brodie British Journal of Cancer (2000) 83(1), 74-82 (c) 2000 Cancer Research Campaign doi: 10.1054/ bjoc.2000.1136, available online at http://www.idealibrary.com on *Present address: Department of Pharmaceutical Sciences, Temple University School of Pharmacy, Philadelphia, PA 19140, USA. Present address: School of Pharmaceutical Sciences, Beijing Medical University, China. Effects of L-39 in vitro and in vivo 75 British Journal of Cancer (2000) 83(1), 74-82 (c) 2000 Cancer Research Campaign advanced prostate cancer (Small et al, 1997). […] 5-Reductase occurs in two isoforms namely, type I and type II. The type II isoenzyme is the predominant form in the human prostate. […] In the present investigation, we describe the effects of L-39, a novel androstene derivative, in vitro and on human prostate cancer xenografts in nude mice. We also evaluated the pharmacokinetic properties of L-39 in male mice in this investigation. […] [21-3 H]-17-hydroxy- pregnenolone ([…] ) was prepared in our laboratory as previously described (Njar et al, 1998). [1,2,6,7-3 H]- Testosterone (96.5 Ci mmol-1 ) and [4-14 C]-dihydrotestosterone (56.5 mCi mmol-1 ) were obtained from Dupont (Boston, MA, USA).
# [2] = tested on: T and DHT concentrations; assay: Testosterone and DHT RIA in serum and PC-82 tumours of treated mice; type: in vivo, male athymic Ncr-nu mice; conditions: 50 mg kg-1 day-1, s.c., 28 days, P < 0.05
# From the text: (§1) Prostate cancer is second only to lung cancer as the leading cause of death and is the most prevalent cancer amongst men in the USA and Europe and accounts for about a third of all cancers diagnosed each year in men. In the UK, the incidence of prostate cancer has almost doubled over the last 30 years. Similarly, in 1998, it was estimated that more than 334 500 cases were diagnosed and more than 41 800 men died of the disease in the USA (Dijkman and Debruyne, 1996). The prostate gland is under the influence of androgens and often becomes enlarged in older men. […] Localized prostate cancer is curable and although the metastatic form of the disease is difficult to manage, endocrine therapy does reduce the death rate from the disease and is first-line treatment for all patients. In the testis and adrenals, 17-hydroxylase/C17,20 -lyase converts the C21 steroid precursors to the corresponding C19 andro- gens. […] Both T and DHT stimu- late prostatic growth, although DHT plays a much more important role than T in the organogenesis and homeostasis of the prostate (Wilson, 1996). […] Androgen- dependent human prostate cancer xenografts (PC-82) were grown in nude mice and the effects of L-39 (50 mg kg-1 day-1 ) on tumour growth and prostate-specific antigen (PSA) levels were determined after 28 days. […] We also evaluated the pharmacokinetic properties of L-39 in male mice in this investigation. […]
# [3] = tested on: androgen receptors; design: method as in Long et al, 1999; conditions: L-39 5 μM, R1881 5 nM, LNCaP cultures; ref Long et al, 1999; cited from earlier work
# [4] = biological target: T1, 5α-reductase in human prostatic microsomes (Homo sapiens, UniProt P31213); assay: 5α-Reductase assay in human prostatic (BPH) microsomes; type: biochemical
# T1 sequence (P31213 1-254): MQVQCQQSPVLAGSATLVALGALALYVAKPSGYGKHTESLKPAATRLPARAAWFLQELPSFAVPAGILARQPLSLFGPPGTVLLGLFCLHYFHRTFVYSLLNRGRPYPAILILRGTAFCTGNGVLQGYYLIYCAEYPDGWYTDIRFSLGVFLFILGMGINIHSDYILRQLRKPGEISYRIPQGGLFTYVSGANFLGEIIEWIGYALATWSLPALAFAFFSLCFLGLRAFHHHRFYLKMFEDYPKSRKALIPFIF
# From the text: (§2) Prostate cancer is second only to lung cancer as the leading cause of death and is the most prevalent cancer amongst men in the USA and Europe and accounts for about a third of all cancers diagnosed each year in men. In the UK, the incidence of prostate cancer has almost doubled over the last 30 years. Similarly, in 1998, it was estimated that more than 334 500 cases were diagnosed and more than 41 800 men died of the disease in the USA (Dijkman and Debruyne, 1996). The prostate gland is under the influence of androgens and often becomes enlarged in older men. […] Localized prostate cancer is curable and although the metastatic form of the disease is difficult to manage, endocrine therapy does reduce the death rate from the disease and is first-line treatment for all patients. In the testis and adrenals, 17-hydroxylase/C17,20 -lyase converts the C21 steroid precursors to the corresponding C19 andro- gens. […] Both T and DHT stimu- late prostatic growth, although DHT plays a much more important role than T in the organogenesis and homeostasis of the prostate (Wilson, 1996). Current endocrine therapies such as orchidectomy and luteinizing hormone releasing hormone (LHRH) agonists result in reduced androgen production by the testis and are useful in the early stages of prostate cancer. However, these treatment options fail to alter androgen production by the adrenals that may contribute androgen precursors to the prostate. The addition of flutamide, an anti-androgen to inhibit the action of androgens on the prostate, is only partially effective as the disease frequently progresses due to mutations in the androgen receptor, which can utilize flutamide as an agonist. […] Androgen- dependent human prostate cancer xenografts (PC-82) were grown in nude mice and the effects of L-39 (50 mg kg-1 day-1 ) on tumour growth and prostate-specific antigen (PSA) levels were determined after 28 days. […] We also evaluated the pharmacokinetic properties of L-39 in male mice in this investigation. […]
# [5] = tested on: LNCaP human prostatic cells grown as tumours; design: method as in Long et al, 1999; conditions: ref Long et al, 1999; cited from earlier work
# [6] = tested on: LNCaP human prostate cancer cells; design: method as in Long et al, 1999; conditions: ref Long et al, 1999; cited from earlier work
# [7] = Solubility in water; type: physicochemical
# [8] = tested on: PC-82 human prostate cancer xenografts; assay: Human PC-82 prostate cancer xenograft model: tumour volume and weight; type: in vivo, male athymic Ncr-nu mice
# From the text: as §2
# [9] = tested on: prostate-specific antigen (PSA) levels; assay: PSA ELISA in serum and PC-82 tumours of treated mice; type: in vivo, male athymic Ncr-nu mice; conditions: 50 mg kg-1 day-1, s.c., 28 days, P < 0.01
# From the text: as §1
# [10] = biological target: T2, human testicular microsomal 17α-hydroxylase/C17,20-lyase (Homo sapiens, UniProt P05093); assay: Inhibition of 17α-hydroxylase/C17,20-lyase activity in human testicular microsomes ([3H]-acetic acid release); type: biochemical
# T2 construct: Testicular and prostatic microsomes were prepared as described previously; from tissue; host or cells: human testis, microsomal fraction
# T2 sequence (P05093 1-508): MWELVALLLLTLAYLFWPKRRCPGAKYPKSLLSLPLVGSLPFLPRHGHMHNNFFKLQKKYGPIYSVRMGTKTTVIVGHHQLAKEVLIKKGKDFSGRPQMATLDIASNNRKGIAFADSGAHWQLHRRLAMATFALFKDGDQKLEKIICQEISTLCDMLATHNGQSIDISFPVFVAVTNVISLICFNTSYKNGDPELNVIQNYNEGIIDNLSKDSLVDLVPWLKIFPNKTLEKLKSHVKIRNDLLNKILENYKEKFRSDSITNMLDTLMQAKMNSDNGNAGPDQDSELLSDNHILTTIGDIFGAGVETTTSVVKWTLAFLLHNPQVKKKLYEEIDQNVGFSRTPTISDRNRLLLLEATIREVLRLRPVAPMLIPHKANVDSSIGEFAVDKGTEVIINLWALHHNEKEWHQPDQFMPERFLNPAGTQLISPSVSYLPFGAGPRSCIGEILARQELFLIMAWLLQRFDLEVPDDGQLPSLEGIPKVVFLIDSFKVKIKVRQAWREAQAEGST
# From the text: as §2
# [11] = Gross examination of vital organs, organ and body weights after treatment; type: in vivo, male athymic Ncr-nu mice; conditions: 50 mg kg-1 daily, s.c., 28 days
# From the text: as §1
# [12] = biological target: T2, human testicular microsomal 17α-hydroxylase/C17,20-lyase; design: method as in Nnane et al, 1998; conditions: ref Nnane et al, 1998; cited from earlier work
# [13] = intravenous 50 mg kg-1, single bolus, mouse plasma
# [14] = subcutaneous 50 mg kg-1, single bolus, mouse plasma
# [15] = subcutaneous 100 mg kg-1, single bolus, mouse plasma
smiles,measurement,setting,value
"C[C@]12CCC(=O)C=C1CC[C@@H]1[C@@H]2CC[C@]2(C)C(c3ccno3)=CC[C@@H]12 [L-39, 17-(5′-Isoxazolyl)androsta-4,16-dien-3-one]",metabolism in mice,"[1]; initial observations, metabolite not characterized",metabolized to a more polar metabolite
same,time after intravenous administration at which L-39 was not detectable in plasma,[1]; intravenous 50 mg kg-1,4 h
same,AUC0-,[1]; [13],14.41
same,CI (total clearance),[1]; [13],3.47 0.14 l h-1 kg-1 and 3.5 l h-1 kg-1
same,Kel (terminal elimination rate constant),[1]; [13],1.05 0.05 h-1 and 1.052 h-1
same,MTR,[1]; [13],1.15 h
same,T1/2,[1]; [13],0.66 h
same,Vd,[1]; [13],3.30 0.13 l kg-1
same,AUC0-,[1]; [14],4.09
same,CI (total clearance),[1]; [14],12.24 0.48 l h-1 kg-1
same,Cmax,[1]; [14],1.42
same,Kel,[1]; [14],0.46 0.02 h-1
same,MTR,[1]; [14],2.52 h
same,T1/2,[1]; [14],1.51 h
same,Tmax,[1]; [14],0.75 h
same,Vd,[1]; [14],26.73 1.04 l kg-1
same,AUC0-,[1]; [15],4.04
same,CI (total clearance),[1]; [15],24.78 1.0 l h-1 kg-1
same,Cmax,[1]; [15],1.30
same,Kel,[1]; [15],0.53 0.03 h-1
same,MTR,[1]; [15],2.41 h
same,T1/2,[1]; [15],1.31 h
same,Tmax,[1]; [15],1.0 h
same,Vd,[1]; [15],46.80 1.84 l kg-1
same,reduction of DHT concentration in PC-82 tumour xenografts,[2],94%
same,reduction of T concentration in PC-82 tumour xenografts,[2],64%
same,anti-androgenic activity: binding of labelled R1881 to androgen receptors,[3],preventing the labelled synthetic androgen R1881 (5 n M) from binding to the androgen receptors
same,type of inhibition of 5α-reductase,[4],competitive
same,Ki,"[4]; Lineweaver-Burke slopes, read-out: Ki, inhibition of 5α-reductase",28 nM
same,IC50,"[4]; T 40 nM, 10 min, pH 7.4, read-out: IC50, inhibition of 5α-reductase",33 nM
same,growth of LNCaP tumours in male SCID mice,[5],effective at slowing LNCaP human prostatic cells grown in male SCID mice as tumours; also recorded: more effective than flutamide
same,proliferation of LNCaP cells in culture,[6],inhibits proliferation
same,solubility in water,[7],poorly soluble in water
same,diminution of PC-82 tumour weights,"[8]; 50 mg kg-1 daily, s.c., 28 days, vs control",70%
same,increase in tumour volume over 28 days,"[8]; 50 mg kg-1 daily, s.c., control increased twofold",1.25 fold
same,"potency in reducing growth of PC-82 tumour xenografts, compared with other therapies","[8]; 50 mg kg-1 day-1, s.c., 28 days",to a similar extent as castration or flutamide treatment
same,reduction of tumour PSA levels,[9],50%
same,"type of inhibition of 17α-hydroxylase/C17,20-lyase",[10],non-competitive
same,Ki,[10]; Lineweaver-Burke slopes,22 nM
same,IC50,"[10]; substrate 17-hydroxypregnenolone, 1 h, pH 7.4",59 nM
same,"gross examination of liver, kidney, heart and adrenal gland",[11],did not reveal toxicity
same,weight of vital organs and body weight,[11],did not change significantly
CC(C)(C)NC(=O)[C@H]1CC[C@H]2[C@@H]3CC[C@H]4NC(=O)C=C[C@]4(C)[C@H]3CC[C@]12C [finasteride],"activity against 17-hydroxylase/C17,20-lyase",[12],no activity

# Reference: PMC2374539, “Anti-tumour effects and pharmacokinetic profile of 17-(5′ -isoxazolyl)androsta-4,16-dien-3-one (L-39) in mice: an inhibitor of androgen synthesis” (British Journal of Cancer, 2000)
